Test results: patent US5747320A (The United States of America, as represented by the …, priority 1996, dated 1998)
Entries after “also recorded” stand apart in the source; their conditions may differ.

How the values were obtained:
[1] = system: purified β-glucosidase from Candida peltata Y-21603; assay: Substrate specificity and kinetic analysis (Lineweaver-Burk); format: biochemical; conditions: for relative rate of hydrolysis, of that of pNPβG: aryl-glycosides; for activity on substrate (relative rate of hydrolysis): disaccharides; for Vmax / Km: pH 5.0 and 50° C.; for Km: read-out: apparent Km
Text: Substrate specificity and kinetic analysis. Relative rates of hydrolysis of various substrates by the purified β-glucosidase were studied. The enzyme could hydrolyze pNPβG and cellobiose effectively. Salicin was hydrolyzed at 34% of that of cellobiose. The purified enzyme had very little (<5%) or no activity on lactose, maltose, sucrose and trehalose. It also had no or very little activity on p-nitrophenyl-α-D-glucoside, p-nitrophenyl-β-D-xyloside, p-nitrophenyl-β-D-cellobioside, p-nitrophenyl-α-L-arabinofuranoside, and p-nitrophenyl-β-D-glucuronide (<5%). p-Nitrophenyl-β-D-galactoside was hydrolyzed at 6% of that of pNPβG. The reaction kinetics of the purified enzyme were determined from Lineweaver-Burk plots using pNPβG and cellooligosaccharides (cellobiose to cellohexaose) as substrates under optimal conditions (pH 5.0 and 50° C.).

[2] = system: purified β-glucosidase from Candida peltata Y-21603; assay: Inhibition by glucose, cellobiose and other sugars; inhibitors and activators (pNPβG hydrolysis assay); format: biochemical
Description: FIG. 4. […] Reaction time was 15 min at pH 5.0 and 50° C. Enzyme used, 39 mU/ml. pNPβG used: .smallcircle., 0.4 mM; .circle-solid., 0.8 mM; .tangle-solidup., 1.2 mM; Δ, 1.6 mM; .quadrature., 2.0 mM; .box-solid., 2.4 mM.
After incubation at 50° C. for 30 min, the reaction was stopped by adding ice-cold 0.5M Na2 CO3 (1 ml) and the color developed as a result of p-nitrophenol (pNP) liberation was measured at 405 nm.
Inhibition by glucose cellobiose and other sugars. The study of inhibition by glucose was performed with pNPβG as substrate.
Inhibitors and activators.

Candida peltata Y-21603 = assay: Growth and β-glucosidase production on various carbon sources; format: cell-based; conditions: 28° C., 4 days
Description: Yeast strain, medium and culture conditions. The yeast strain (C. peltata NRRL Y-21603, also available as NRRL Y-6888) used in this study was obtained from the ARS culture collection, NCAUR, Peoria, Ill. The medium ([…] et al., 1982, Biotechnol. […] Solution A was a trace mineral solution having the following ingredients (per L): 1.1 g CaO, 0.4 g ZnO, 5.4 g FeCl3 ·6H2 O, 0.25 g CuSO4.5H2 O, 0.24 g CoCl2.6H2 O, 0.06 g H3 BO3 and 13 ml concentrated HCl. Solution B (per L) was composed of 10.1 g MgO and 45 ml concentrated HCl. Solution C (per L) contained 64 g urea, 12 g KH2 PO4, and 1.8 g Na2 HPO4. Substrates were sterilized separately. […] After 4 days, the cells were removed from the culture broth by centrifugation (18,000×g, 20 min). The resulting supernatant solution was used as the crude enzyme preparation. […] Analytical methods. […] Glucose was a good growth substrate for production of β-glucosidase.

[3] = system: purified β-glucosidase from Candida peltata Y-21603; assay: Inhibition by glucose, cellobiose and other sugars; inhibitors and activators (pNPβG hydrolysis assay); format: biochemical; remark: listed apart in the source

O=[N+]([O-])c1ccc(O[C@@H]2O[C@H](CO)[C@H](O)[C@H](O)[C@H]2O)cc1 [p-Nitrophenyl-β-D-galactoside]
relative rate of hydrolysis, of that of pNPβG ([1]; purified enzyme): 6%

arabinose
inhibition of β-glucosidase activity ([2]; sugar at 56 mM): did not inhibit

[Co+2] [Co^2+]
dependence of enzyme activity on metal ion ([2]; 0.5 mM): not dependent

OC[C@H]1O[C@H](O[C@H]2[C@H](O)[C@@H](O)[C@H](O)O[C@@H]2CO)[C@H](O)[C@@H](O)[C@@H]1O [Maltose, maltose]
activity on substrate (relative rate of hydrolysis) ([1]; purified enzyme): < 5%
Growth (A660) (Candida peltata Y-21603; carbon source 1% w/v): 9.3

O=[N+]([O-])c1ccc(O[C@@H]2OC[C@@H](O)[C@H](O)[C@H]2O)cc1 [p-nitrophenyl-β-D-xyloside]
relative rate of hydrolysis, of that of pNPβG ([1]; purified enzyme): < 5%

OC[C@H]1O[C@@H](O[C@H]2[C@H](O)[C@@H](O)C(O)O[C@@H]2CO)[C@H](O)[C@@H](O)[C@H]1O (stereo partly drawn) [Lactose, lactose]
inhibition of β-glucosidase activity ([2]; sugar at 29 mM): did not inhibit
activity on substrate (relative rate of hydrolysis) ([1]; purified enzyme): < 5%
Growth (A660) (Candida peltata Y-21603; carbon source 1% w/v): 2.5

O=[N+]([O-])c1ccc(O[C@H]2O[C@H](CO)[C@@H](O)[C@H](O)[C@H]2O)cc1 [p-nitrophenyl-α-D-glucoside]
relative rate of hydrolysis, of that of pNPβG ([1]; purified enzyme): < 5%

OC1OC[C@@H](O)[C@H](O)[C@H]1O (stereo partly drawn) [Xylose, xylose]
inhibition of β-glucosidase activity ([2]; sugar at 56 mM): did not inhibit
Growth (A660) (Candida peltata Y-21603; carbon source 1% w/v): 11.3

OCc1ccccc1O[C@@H]1O[C@H](CO)[C@@H](O)[C@H](O)[C@H]1O [Salicin]
relative rate of hydrolysis, of that of cellobiose ([1]; purified enzyme): 34%

O=C(CO)[C@@H](O)[C@H](O)[C@H](O)CO [fructose]
inhibition of β-glucosidase activity ([2]; sugar at 56 mM): did not inhibit

OC[C@H]1O[C@@H](O[C@H]2[C@H](O)[C@@H](O)[C@H](O[C@H]3[C@H](O)[C@@H](O)[C@H](O[C@H]4[C@H](O)[C@@H](O)C(O)O[C@@H]4CO)O[C@@H]3CO)O[C@@H]2CO)[C@H](O)[C@@H](O)[C@@H]1O (stereo partly drawn) [cellotetraose]
Vmax [1]: 16 μmol.min^-1.mg^-1 protein
Km [1]: 35 mM

[Mg+2] [Mg^2+]
dependence of enzyme activity on metal ion ([2]; 5 mM): not dependent

OC[C@H]1O[C@@H](O[C@H]2[C@H](O)[C@@H](O)[C@H](O[C@H]3[C@H](O)[C@@H](O)[C@H](O[C@H]4[C@H](O)[C@@H](O)[C@H](O[C@H]5[C@H](O)[C@@H](O)[C@H](O[C@H]6[C@H](O)[C@@H](O)C(O)O[C@@H]6CO)O[C@@H]5CO)O[C@@H]4CO)O[C@@H]3CO)O[C@@H]2CO)[C@H](O)[C@@H](O)[C@@H]1O (stereo partly drawn) [cellohexaose]
Vmax [1]: 5 μmol.min^-1.mg^-1 protein
Km [1]: 18 mM

OC[C@H]1OC(O)[C@H](O)[C@@H](O)[C@H]1O (stereo partly drawn) [Galactose]
inhibition of β-glucosidase activity ([2]; sugar at 56 mM): did not inhibit

OC[C@H]1OC(O)[C@H](O)[C@@H](O)[C@@H]1O (stereo partly drawn) [Glucose, glucose]
Growth (A660) (Candida peltata Y-21603; carbon source 1% w/v): 10.7
Growth (A660) (Candida peltata Y-21603; carbon source 2% w/v): 13.7
Growth (A660) (Candida peltata Y-21603; carbon source 4% w/v): 13.3
Growth (A660) (Candida peltata Y-21603; carbon source 8% w/v): 9.7
Growth (A660) (Candida peltata Y-21603; carbon source 12% w/v): 7.9
Growth (A660) (Candida peltata Y-21603; carbon source 20% w/v): 7.3

O[C@H](CS)[C@H](O)CS (racemic) [DTT, dithiothreitol]
effect on enzyme activity ([2]; 10 mM): not affected

O=C(O)c1cc[c]([Hg][Cl])cc1 [pCMB, p-chloromercuribenzoic acid]
effect on enzyme activity ([2]; 0.2 mM): not affected; also recorded: unaffected

OC[C@H]1O[C@@](CO)(O[C@H]2O[C@H](CO)[C@@H](O)[C@H](O)[C@H]2O)[C@@H](O)[C@@H]1O [Sucrose, sucrose]
inhibition of β-glucosidase activity ([2]; sugar at 29 mM): did not inhibit
activity on substrate (relative rate of hydrolysis) ([1]; purified enzyme): < 5%
Growth (A660) (Candida peltata Y-21603; carbon source 1% w/v): 9.0

OC[C@H]1O[C@@H](O[C@H]2[C@H](O)[C@@H](O)[C@H](O[C@H]3[C@H](O)[C@@H](O)C(O)O[C@@H]3CO)O[C@@H]2CO)[C@H](O)[C@@H](O)[C@@H]1O (stereo partly drawn) [cellotriose]
Vmax [1]: 32 μmol.min^-1.mg^-1 protein
Km [1]: 39 mM

O=[N+]([O-])c1ccc(O[C@@H]2O[C@H](CO)[C@@H](O[C@@H]3O[C@H](CO)[C@@H](O)[C@H](O)[C@H]3O)[C@H](O)[C@H]2O)cc1 [p-nitrophenyl-β-D-cellobioside]
relative rate of hydrolysis, of that of pNPβG ([1]; purified enzyme): < 5%

O=C[C@H](O)[C@@H](O)[C@@H](O)CO [L-Arabinose]
Growth (A660) (Candida peltata Y-21603; carbon source 1% w/v): 9.4

CCO [ethanol]
increase of pNPβG hydrolysis (initial activity) ([2]; 0.75% (v/v) ethanol, pH 5.0, 50° C., 30 min reaction): 11%

OC[C@H]1OC(O)[C@@H](O)[C@@H](O)[C@@H]1O (stereo partly drawn) [mannose]
inhibition of β-glucosidase activity ([2]; sugar at 56 mM): did not inhibit

[Ca+2] [Ca^2+]
dependence of enzyme activity on metal ion ([2]; 5 mM): not dependent

OC[C@H]1O[C@@H](O[C@H]2[C@H](O)[C@@H](O)C(O)O[C@@H]2CO)[C@H](O)[C@@H](O)[C@@H]1O (stereo partly drawn) [Cellobiose, cellobiose]
Vmax [1]: 75 μmol.min^-1.mg^-1 protein
Km [1]: 66 mM
Growth (A660) (Candida peltata Y-21603; carbon source 1% w/v): 8.7
substrate inhibition ([3]; 15% cellobiose): no inhibition; also recorded: not observed at all; also recorded: not inhibited at all

O=[N+]([O-])c1ccc(O[C@@H]2O[C@@H](CO)[C@H](O)[C@H]2O)cc1 [p-nitrophenyl-α-L-arabinofuranoside]
relative rate of hydrolysis, of that of pNPβG ([1]; purified enzyme): < 5%

OC[C@H]1O[C@H](O[C@H]2O[C@H](CO)[C@@H](O)[C@H](O)[C@H]2O)[C@H](O)[C@@H](O)[C@@H]1O [trehalose]
activity on substrate (relative rate of hydrolysis) ([1]; purified enzyme): < 5%

O=[N+]([O-])c1ccc(O[C@@H]2O[C@H](CO)[C@@H](O)[C@H](O)[C@H]2O)cc1 [pNPβG, p-nitrophenyl β-D-glucoside]
Vmax [1]: 221 μmol.min^-1.mg^-1 protein
Km [1]: 2.3 mM
substrate inhibition ([3]; 40 mM pNPβG): not observed at all; also recorded: not inhibited at all

OC[C@H]1O[C@@H](O[C@H]2[C@H](O)[C@@H](O)[C@H](O[C@H]3[C@H](O)[C@@H](O)[C@H](O[C@H]4[C@H](O)[C@@H](O)[C@H](O[C@H]5[C@H](O)[C@@H](O)C(O)O[C@@H]5CO)O[C@@H]4CO)O[C@@H]3CO)O[C@@H]2CO)[C@H](O)[C@@H](O)[C@@H]1O (stereo partly drawn) [cellopentaose]
Vmax [1]: 8 μmol.min^-1.mg^-1 protein
Km [1]: 21 mM

O=C(O)[C@H]1O[C@@H](Oc2ccc([N+](=O)[O-])cc2)[C@H](O)[C@@H](O)[C@@H]1O [p-nitrophenyl-β-D-glucuronide]
relative rate of hydrolysis, of that of pNPβG ([1]; purified enzyme): < 5%

[Mn+2] [Mn^2+]
dependence of enzyme activity on metal ion ([2]; 5 mM): not dependent
